# Assay results reported in patent US20180201609A1 (AURIGENE DISCOVERY TECHNOLOGIES LIMITED, priority 2015, published 2018).
# Counter-ions that a name gives are not always drawn.
# Target: T1, IRAK-4 enzyme (Homo sapiens, UniProt Q9NWZ3)
# T1 construct: purchased Millipore, USA
# T1 sequence (Q9NWZ3 1-460): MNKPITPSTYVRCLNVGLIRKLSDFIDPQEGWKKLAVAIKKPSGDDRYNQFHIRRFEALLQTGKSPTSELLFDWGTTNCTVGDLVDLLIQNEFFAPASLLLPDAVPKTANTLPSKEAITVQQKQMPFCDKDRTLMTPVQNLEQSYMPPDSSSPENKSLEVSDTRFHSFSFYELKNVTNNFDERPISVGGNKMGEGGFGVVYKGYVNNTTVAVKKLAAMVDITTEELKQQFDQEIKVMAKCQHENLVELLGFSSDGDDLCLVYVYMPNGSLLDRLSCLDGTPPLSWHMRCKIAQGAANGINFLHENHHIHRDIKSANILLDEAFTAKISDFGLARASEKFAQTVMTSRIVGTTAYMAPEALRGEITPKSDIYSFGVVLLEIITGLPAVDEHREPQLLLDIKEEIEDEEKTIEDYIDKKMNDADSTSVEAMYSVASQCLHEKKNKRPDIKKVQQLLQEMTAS
# Assay: IRAK-4 Biochemical Assay (TR-FRET)
# Conditions: recombinant IRAK-4 kinase, 20 μM ATP
# Procedure: Compounds were tested for their potential to inhibit IRAK-4 enzyme in a TR-FRET assay using recombinant IRAK-4 kinase from Millipore, USA. The assay buffer was 50 mM Tris-HCl pH 7.5, 20 mM MgCl2, 1 mM EGTA, 2 mM DTT, 3 mM MnCl2 and 0.01% Tween 20.5 ng of IRAK-4 kinase was used for the assay. After pre-incubation of enzyme with test compound for 30 minutes at room temperature, a substrate mixture containing 100 nM Biotin Histone H3 (Millipore, USA) and 20 μM ATP (Sigma, USA) was added and the reaction was incubated for 30 min. Post incubation, the reaction was stopped by the addition of stop mix containing 40 mM EDTA, 1 nM of Europium-Anti-Phospho-Histone H3 (Ser10) antibody (Perkin Elmer, USA) and 20 nM SureLight Allophycocyanin-Streptavidin (Perkin Elmer, USA). The fluorescence emission at 615 nm and 665 nm were measured at an excitation of 340 nm and the percent inhibition was estimated from the ratio of the fluorescence intensities [(F665/F615)×10000].
# The compounds of the present invention were screened in the above mentioned assay and the percent inhibition data is summarized in the Table 1.
SMILES,inhibition at 0.1 µM (0.1 μM compound) [%],inhibition at 1 µM (1 μM compound) [%],% inhibition of IRAK-4 activity @0.1 μM (0.1 μM compound) [%],% inhibition of IRAK-4 activity @1 μM (1 μM compound) [%]
"COCCn1nc(C)c2cc(NC(=O)c3coc(-c4ccnc(N)c4)n3)c(N3CCC(CO)CC3)cc21 [Example 10, 2-(2-aminopyridin-4-yl)-N-(6-(4-(hydroxymethyl)piperidin-1-yl)-1-(2-methoxyethyl)-3-methyl-1H-indazol-5-yl)oxazole-4-carboxamide hydrochloride]",99,99,–,–
"Cc1cc(-c2nc(C(=O)Nc3cc4cnn(CCN5CCN(C)CC5)c4cc3N3CCC(O)CC3)co2)ccn1 [Example 6, N-(6-(4-hydroxypiperidin-1-yl)-1-(2-(4-methylpiperazin-1-yl)ethyl)-1H-indazol-5-yl)-2-(2-methylpyridin-4-yl)oxazole-4-carboxamide]",79,96,–,–
"Cc1cc(-c2nc(C(=O)Nc3cc4cnn(CCN(C)C)c4cc3N3CCC(O)CC3)co2)ccn1 [Example 2, N-(1-(2-(dimethylamino)ethyl)-6-(4-hydroxypiperidin-1-yl)-1H-indazol-5-yl)-2-(2-methylpyridin-4-yl)oxazole-4-carboxamide]",95,98,–,–
"Cn1cc2cc(NC(=O)c3cccc(-c4ccc(N)nc4)n3)c(N3CCOCC3)cc2n1 [Example 49, 6′-amino-N-(2-methyl-6-morpholino-2H-indazol-5-yl)-[2,3′-bipyridine]-6-carboxamide]",96,97,–,–
"Cc1cc(-c2nc(C(=O)Nc3cc4cnn(C)c4nc3N3CCCCC3)co2)ccn1 [Example 16, N-(1-methyl-6-(piperidin-1-yl)-1H-pyrazolo[3,4-b]pyridin-5-yl)-2-(2-methylpyridin-4-yl)oxazole-4-carboxamide]",99,99,–,–
"COCCCn1ncc2cc(NC(=O)c3coc(-c4ccnc(C)c4)n3)c(N3CCC(O)CC3)cc21 [Example 4, N-(6-(4-hydroxypiperidin-1-yl)-1-(3-methoxypropyl)-1H-indazol-5-yl)-2-(2-methylpyridin-4-yl)oxazole-4-carboxamide hydrochloride]",95,99,–,–
"CN1CCN(CCn2ncc3cc(NC(=O)c4coc(-c5ccnc(N)c5)n4)c(N4CCC(O)CC4)cc32)CC1 [Example 31, 2-(2-aminopyridin-4-yl)-N-(6-(4-hydroxypiperidin-1-yl)-1-(2-(4-methylpiperazin-1-yl)ethyl)-1H-indazol-5-yl)oxazole-4-carboxamide hydrochloride]",99,99,–,–
"COCCn1nc(C)c2cc(NC(=O)c3coc(-c4ccnc(N)c4)n3)c(N3CCC(CO)CC3)nc21 [Example 30, 2-(2-aminopyridin-4-yl)-N-(6-(4-(hydroxymethyl)piperidin-1-yl)-1-(2-methoxyethyl)-3-methyl-1H-pyrazolo[3,4-b]pyridin-5-yl)oxazole-4-carboxamide]",86,99,–,–

# The next lines start with the values.
inhibition at 0.1 µM (0.1 μM compound) [%],inhibition at 1 µM (1 μM compound) [%],% inhibition of IRAK-4 activity @0.1 μM (0.1 μM compound) [%],% inhibition of IRAK-4 activity @1 μM (1 μM compound) [%],SMILES
95,96,–,–,"O=C(Nc1cc2cn(C3CCNCC3)nc2cc1C1CC1)c1cccc(N2CCC(O)C2)n1 (stereo not shown) [Example 54, N-(6-cyclopropyl-2-(piperidin-4-yl)-2H-indazol-5-yl)-6-(3-hydroxypyrrolidin-1-yl)picolinamide hydrochloride]"
86,95,–,–,"Cn1cc2cc(NC(=O)c3cccc(-c4ccnc(N)c4)n3)c(N3CCOCC3)cc2n1 [Example 50, 2′-amino-N-(2-methyl-6-morpholino-2H-indazol-5-yl)-[2,4′-bipyridine]-6-carboxamide hydrochloride]"
–,72,–,–,"Cc1cnccc1-c1nc(C(=O)Nc2cc3cn(C)nc3nc2N2CC[C@H](O)C2)co1 [Example 20, (S)—N-(6-(3-hydroxypyrrolidin-1-yl)-2-methyl-2H-pyrazolo[3,4-b]pyridin-5-yl)-2-(3-methylpyridin-4-yl)oxazole-4-carboxamide]"
67,95,–,–,"Cn1cc2cc(NC(=O)c3cc(N4CCC(O)C4)ccn3)c(C3CC3)cc2n1 (stereo not shown) [Example 71, N-(6-cyclopropyl-2-methyl-2H-indazol-5-yl)-4-(3-hydroxypyrrolidin-1-yl)picolinamide hydrochloride]"
–,–,82,92,"Cl.Cn1cc2cc(NC(=O)c3cncc(N4CCC(O)C4)n3)c(N3CCCCC3)cc2n1 (stereo not shown) [Example 67, 6-(3-hydroxypyrrolidin-1-yl)-N-(2-methyl-6-(piperidin-1-yl)-2H-indazol-5-yl)pyrazine-2-carboxamide hydrochloride]"
97,99,–,–,"COCCn1nc(C)c2cc(NC(=O)c3coc(-c4ccnc(N)c4)n3)c(N3CCC(O)CC3)cc21 [Example 9, 2-(2-aminopyridin-4-yl)-N-(6-(4-hydroxypiperidin-1-yl)-1-(2-methoxyethyl)-3-methyl-1H-indazol-5-yl)oxazole-4-carboxamide]"
96,98,–,–,"COCCn1ncc2cc(NC(=O)c3coc(-c4ccnc(N)c4)n3)c(N3CCC(O)CC3)cc21 [Example 7, 2-(2-aminopyridin-4-yl)-N-(6-(4-hydroxypiperidin-1-yl)-1-(2-methoxyethyl)-1H-indazol-5-yl)oxazole-4-carboxamide hydrochloride]"
96,97,–,–,"Cn1cc2cc(NC(=O)c3coc(-c4cccc(N)n4)n3)c(N3CCCCC3)cc2n1 [Example 41, 2-(6-aminopyridin-2-yl)-N-(2-methyl-6-(piperidin-1-yl)-2H-indazol-5-yl)oxazole-4-carboxamide]"
97,96,–,–,"Cn1cc2cc(NC(=O)c3cccc(-c4ccnc(N)c4)n3)c(N3CCCCC3)cc2n1 [Example 43, 2′-amino-N-(2-methyl-6-(piperidin-1-yl)-2H-indazol-5-yl)-[2,4′-bipyridine]-6-carboxamide hydrochloride]"
9,27,–,–,"COc1ccc(C(=O)Nc2cc3cn(C)nc3cc2N2CCCCC2)nc1-c1ccnc(N)c1 [Example 45, 2′-amino-3-methoxy-N-(2-methyl-6-(piperidin-1-yl)-2H-indazol-5-yl)-[2,4′-bipyridine]-6-carboxamide]"
96,101,–,–,"Cn1cc2cc(NC(=O)c3cccc(N4CC[C@@H](O)C4)n3)c(N3CCCCC3)cc2n1 [Example 57, (R)-6-(3-hydroxypyrrolidin-1-yl)-N-(2-methyl-6-(piperidin-1-yl)-2H-indazol-5-yl)picolinamide]"
